pIC50: −log10 of the molar value.
How the values were obtained:
Assay type in all cases: biochemical
[1] = molecular target: T1, recombinant alpha-glucosidase II (murine full-length glucosidase II, alpha and beta subunits, Glu 2) (Mus musculus, UniProt Q8BHN3); experiment: Alpha-glucosidase II assay (4-methylumbelliferyl-alpha-D-pyranoside substrate, fluorescence); settings: Glucosidase 2; read-out: Glu2 IC50
T1 construct: made in house; host or cells: HEK-293T cells transduced with BacMam viruses (75% alpha, 25% beta); protein harvested from culture supernatant
T1 sequence (O08795 15-521): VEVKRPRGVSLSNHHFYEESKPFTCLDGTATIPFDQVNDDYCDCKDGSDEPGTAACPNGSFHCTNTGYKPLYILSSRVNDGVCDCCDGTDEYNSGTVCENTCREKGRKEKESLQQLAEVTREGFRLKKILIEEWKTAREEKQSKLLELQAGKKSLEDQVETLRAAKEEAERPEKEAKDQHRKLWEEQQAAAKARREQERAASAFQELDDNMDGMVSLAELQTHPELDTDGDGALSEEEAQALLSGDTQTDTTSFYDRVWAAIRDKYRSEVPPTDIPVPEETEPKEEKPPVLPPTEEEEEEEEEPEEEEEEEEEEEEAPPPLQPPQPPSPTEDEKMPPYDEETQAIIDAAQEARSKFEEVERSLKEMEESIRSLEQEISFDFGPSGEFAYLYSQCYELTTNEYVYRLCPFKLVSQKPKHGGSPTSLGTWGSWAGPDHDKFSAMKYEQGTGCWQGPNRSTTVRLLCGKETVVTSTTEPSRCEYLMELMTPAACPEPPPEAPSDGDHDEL
T1 sequence (Q8BHN3 33-944): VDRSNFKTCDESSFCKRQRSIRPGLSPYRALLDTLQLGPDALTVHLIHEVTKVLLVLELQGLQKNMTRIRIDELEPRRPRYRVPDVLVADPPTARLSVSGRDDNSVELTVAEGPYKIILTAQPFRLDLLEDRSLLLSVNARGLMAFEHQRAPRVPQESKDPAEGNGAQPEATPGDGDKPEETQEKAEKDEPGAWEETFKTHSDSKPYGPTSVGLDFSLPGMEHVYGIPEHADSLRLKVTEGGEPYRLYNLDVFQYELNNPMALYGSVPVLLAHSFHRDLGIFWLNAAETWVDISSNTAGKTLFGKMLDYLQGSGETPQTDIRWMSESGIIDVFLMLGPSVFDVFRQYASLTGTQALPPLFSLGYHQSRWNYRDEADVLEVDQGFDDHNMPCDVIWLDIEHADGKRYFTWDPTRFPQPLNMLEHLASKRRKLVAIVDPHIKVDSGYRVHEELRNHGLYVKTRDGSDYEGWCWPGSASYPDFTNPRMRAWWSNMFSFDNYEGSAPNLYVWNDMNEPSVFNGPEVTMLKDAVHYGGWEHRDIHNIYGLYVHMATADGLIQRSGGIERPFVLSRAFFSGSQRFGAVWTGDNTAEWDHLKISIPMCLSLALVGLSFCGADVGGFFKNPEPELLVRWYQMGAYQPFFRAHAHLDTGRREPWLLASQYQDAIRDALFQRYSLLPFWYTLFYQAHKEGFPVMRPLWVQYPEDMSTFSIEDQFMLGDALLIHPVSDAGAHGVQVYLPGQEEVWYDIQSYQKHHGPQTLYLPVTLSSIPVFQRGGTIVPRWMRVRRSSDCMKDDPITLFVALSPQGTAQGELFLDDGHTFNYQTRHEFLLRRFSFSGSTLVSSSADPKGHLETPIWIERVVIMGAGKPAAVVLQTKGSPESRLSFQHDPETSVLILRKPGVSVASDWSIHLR

[2] = molecular target: rat sucrase (partially purified alpha-glucosidase from intestinal rat powder) (Rattus norvegicus, UniProt P23739); experiment: Intestinal alpha-glucosidase assay, sucrose substrate (Glucose GO Kit)
Chain of rat sucrase (partially purified alpha-glucosidase from intestinal rat powder) (P23739 whole entry): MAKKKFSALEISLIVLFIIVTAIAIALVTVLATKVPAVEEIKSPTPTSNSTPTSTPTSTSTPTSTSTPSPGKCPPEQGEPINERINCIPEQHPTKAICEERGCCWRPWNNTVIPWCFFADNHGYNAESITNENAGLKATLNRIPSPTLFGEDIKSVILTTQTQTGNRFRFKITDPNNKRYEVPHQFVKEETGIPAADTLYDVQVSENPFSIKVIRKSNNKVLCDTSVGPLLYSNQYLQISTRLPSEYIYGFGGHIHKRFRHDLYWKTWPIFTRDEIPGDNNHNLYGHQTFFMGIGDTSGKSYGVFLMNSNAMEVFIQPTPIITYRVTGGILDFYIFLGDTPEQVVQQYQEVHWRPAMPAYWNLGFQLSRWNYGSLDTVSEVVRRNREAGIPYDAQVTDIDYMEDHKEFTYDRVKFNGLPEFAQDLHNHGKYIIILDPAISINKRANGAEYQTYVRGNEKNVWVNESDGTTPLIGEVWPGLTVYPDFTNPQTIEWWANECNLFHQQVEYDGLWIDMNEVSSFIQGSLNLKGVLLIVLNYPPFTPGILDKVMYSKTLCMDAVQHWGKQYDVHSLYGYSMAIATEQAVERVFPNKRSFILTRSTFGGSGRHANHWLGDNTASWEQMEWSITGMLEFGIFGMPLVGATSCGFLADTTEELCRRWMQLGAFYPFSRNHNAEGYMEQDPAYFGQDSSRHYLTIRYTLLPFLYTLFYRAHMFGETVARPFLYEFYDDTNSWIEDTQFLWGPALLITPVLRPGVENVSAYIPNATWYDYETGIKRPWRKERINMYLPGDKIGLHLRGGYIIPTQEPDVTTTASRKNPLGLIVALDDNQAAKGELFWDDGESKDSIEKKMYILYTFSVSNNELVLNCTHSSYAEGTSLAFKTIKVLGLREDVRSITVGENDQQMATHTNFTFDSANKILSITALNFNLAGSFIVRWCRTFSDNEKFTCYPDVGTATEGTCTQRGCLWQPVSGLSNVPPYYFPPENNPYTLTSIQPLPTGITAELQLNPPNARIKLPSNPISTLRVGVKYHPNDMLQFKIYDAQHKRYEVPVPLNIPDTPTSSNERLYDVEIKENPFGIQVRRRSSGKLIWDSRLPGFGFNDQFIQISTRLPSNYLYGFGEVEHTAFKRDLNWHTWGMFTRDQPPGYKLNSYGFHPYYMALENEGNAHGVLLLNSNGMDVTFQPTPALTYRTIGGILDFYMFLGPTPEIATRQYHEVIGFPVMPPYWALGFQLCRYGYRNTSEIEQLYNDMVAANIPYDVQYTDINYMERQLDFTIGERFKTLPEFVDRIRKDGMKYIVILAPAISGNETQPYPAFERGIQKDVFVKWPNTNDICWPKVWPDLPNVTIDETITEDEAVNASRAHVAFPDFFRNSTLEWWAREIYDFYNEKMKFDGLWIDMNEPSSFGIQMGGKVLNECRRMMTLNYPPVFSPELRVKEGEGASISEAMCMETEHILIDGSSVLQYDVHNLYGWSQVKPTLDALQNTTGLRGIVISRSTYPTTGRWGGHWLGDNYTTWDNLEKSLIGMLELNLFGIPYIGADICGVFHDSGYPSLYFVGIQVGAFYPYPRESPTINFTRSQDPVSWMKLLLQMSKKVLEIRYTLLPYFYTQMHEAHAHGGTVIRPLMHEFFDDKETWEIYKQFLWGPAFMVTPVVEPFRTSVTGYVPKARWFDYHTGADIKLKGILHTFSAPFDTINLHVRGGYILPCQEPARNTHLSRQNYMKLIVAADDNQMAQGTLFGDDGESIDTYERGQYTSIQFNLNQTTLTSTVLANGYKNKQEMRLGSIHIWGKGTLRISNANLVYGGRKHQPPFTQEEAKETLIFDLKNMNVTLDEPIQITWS
Method in brief: (§1)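 First step: 60 min, 37 °C, compound with partially purified rat intestinal alpha-glucosidase. Next, maltose or sucrose for 30 min at 37 °C, ended at 90 °C for 5 min. Glucose quantified enzymatically; concentration–inhibition data fitted 4-PL for IC50.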

[3] = molecular target: T2, recombinant alpha-glucosidase I (human full-length glucosidase I, Glu 1) (Homo sapiens, UniProt Q13724); experiment: Alpha-glucosidase I assay (Amplex Red glucose detection, synthetic trisaccharide substrate); settings: Glucosidase 1; read-out: Glu 1 IC50
T2 construct: 6-His (C); made in house; host or cells: HEK-293T cells transduced with BacMam virus (virus raised in Sf9)
T2 sequence (Q13724 1-837): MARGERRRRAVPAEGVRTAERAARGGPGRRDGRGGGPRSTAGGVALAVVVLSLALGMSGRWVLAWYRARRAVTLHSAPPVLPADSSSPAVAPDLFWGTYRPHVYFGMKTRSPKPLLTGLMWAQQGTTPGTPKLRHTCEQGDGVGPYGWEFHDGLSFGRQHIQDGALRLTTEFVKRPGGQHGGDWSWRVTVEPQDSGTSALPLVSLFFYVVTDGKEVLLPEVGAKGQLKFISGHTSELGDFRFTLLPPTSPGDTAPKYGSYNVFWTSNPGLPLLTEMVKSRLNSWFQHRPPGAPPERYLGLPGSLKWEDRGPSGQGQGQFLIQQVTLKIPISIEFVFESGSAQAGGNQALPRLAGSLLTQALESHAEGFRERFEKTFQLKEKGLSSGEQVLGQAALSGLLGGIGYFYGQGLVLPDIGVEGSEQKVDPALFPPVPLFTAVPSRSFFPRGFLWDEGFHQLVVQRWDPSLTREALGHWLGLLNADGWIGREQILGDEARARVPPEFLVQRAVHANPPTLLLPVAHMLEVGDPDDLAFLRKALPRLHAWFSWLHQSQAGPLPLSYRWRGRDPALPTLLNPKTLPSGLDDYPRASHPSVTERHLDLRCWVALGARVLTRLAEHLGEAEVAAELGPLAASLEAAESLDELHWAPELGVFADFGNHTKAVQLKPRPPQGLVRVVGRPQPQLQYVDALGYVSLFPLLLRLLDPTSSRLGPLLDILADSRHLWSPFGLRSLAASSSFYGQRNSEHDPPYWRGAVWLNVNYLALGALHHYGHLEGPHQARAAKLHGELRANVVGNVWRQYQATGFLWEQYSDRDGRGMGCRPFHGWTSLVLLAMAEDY
Method in brief: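 Compound dilution series incubated 60 min at 37° C with recombinant His-tagged human glucosidase I ([…]), after which trisaccharide substrate analog was added for 90 min at 37° C. Reaction quenched with 1.5M Tris pH 8; D-glucose detected by Amplex Red fluorescence, 560/590 nm. 4-PL curve fit of percent inhibition gave IC50.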

[4] = molecular target: rat maltase (partially purified alpha-glucosidase from intestinal rat powder); experiment: Intestinal alpha-glucosidase assay, maltose substrate (Glucose GO Kit)
Method in brief: as §1

Compound | pIC50 [1] | pIC50 [2] | pIC50 [3] | pIC50 [4]
O=C(O)c1cc(Cl)cc(NCCc2ccc(CCN3C[C@H](O)[C@@H](O)[C@H](O)[C@H]3CO)cc2)c1 [Compound 1117, 3-chloro-5-{[2-(4-{2-[(2R,3R,4R,5S)-3,4,5-trihydroxy-2-(hydroxymethyl)piperidin-1-yl]ethyl}phenyl)ethyl]amino}benzoic acid] | 6.86 | 6.32 | 6.06 | 6.66
O=C(O)c1cc(NCCCCCCN2C[C@H](O)[C@@H](O)[C@H](O)[C@H]2CO)cc(-c2ncccn2)c1 [Compound 1118, 3-(pyrimidin-2-yl)-5-({6-[(2R,3R,4R,5S)-3,4,5-trihydroxy-2-(hydroxymethyl)piperidin-1-yl]hexyl}amino) benzoic acid] | 8.30 | 7.24 | 8.00 | 8.40
COc1cc(NCCc2ccc(CCN3C[C@H](O)[C@@H](O)[C@H](O)[C@H]3CO)cc2)cc(-c2noc(C3CCC3)n2)c1 [Compound 1120, (2R,3R,4R,5S)-1-{2-[4-(2-{[3-(5-cyclobutyl-1,2,4-oxadiazol-3-yl)-5-methoxyphenyl]amino}ethyl)phenyl]ethyl}-2-(hydroxymethyl)piperidine-3,4,5-triol] | 9.00 | 6.30 | 5.95 | 6.73
OC[C@@H]1[C@@H](O)[C@H](O)[C@@H](O)CN1CCc1ccc(CCNc2cc(Cl)cc(-c3noc(C4CCC4)n3)c2)cc1 [Compound 1122, (2R,3R,4R,5S)-1-{2-[4-(2-{[3-chloro-5-(5-cyclobutyl-1,2,4-oxadiazol-3-yl)phenyl]amino}ethyl)phenyl]ethyl}-2-(hydroxymethyl)piperidine-3,4,5-triol] | 6.53 | 5.78 | 5.94 | 6.14
